Source: patent publication US10561637B2, “Methods for treating angiogenesis related disorder” (KAOHSIUNG MEDICAL UNIVERSITY, priority 2017, dated 2020)
“Also recorded” adds a separate entry of the source.

How the values were obtained:
human EPCs [1] = assay: Sulforhodamine B (SRB) cell proliferation assay in human EPCs; format: cell-based; details: 48th hour
Protocol: (§1) Mitella formosana (Hayata) Masam. is a perennial herb of Saxifragaceae, a native plant of Taiwan. In the present invention, three kinds of tannin compounds, PGG, tellimagrandin I, and tellimagrandin II, found in the compounds extracted from Mitella formosana by using Bioassay-guided fractionation, inhibited the proliferation of EPCs in a concentration dependent manner. […] The results of tube formation assay confirmed that these three compounds (10 μM) inhibited the tube formation of EPCs in different degrees (FIG. 2B). […] Importantly, CAM-angiogenesis model and mice Matrigel-plus model were used to verify the anti-angiogenic effect of tellimagrandin II in vivo.

human EPCs [2] = assay: tube formation assay (capillary-like structures) in human EPCs; format: cell-based; details: 5 and 10 μM, 24 hours, phase-contrast microscope
From the text: The data of five independent experiments are expressed as the mean±mean standard deviation. As compared with the control group, * means p<0.05; *** means p<0.001.
as §1

chicken embryo = assay: chorioallantoic membrane (CAM) angiogenesis assay; format: in vivo; details: CAM-angiogenesis model
From the text: (§2) Sorafenib is a multiple kinase inhibitor, which is used as a positive control in the in vivo anti-angiogenesis assay.
as §1

mice = assay: Matrigel plug model of capillary formation; format: in vivo
From the text: as §2, §1

human EPCs [3] = assay: lactate dehydrogenase (LDH) release assay in human EPCs; format: cell-based; details: 10-20 μM, 24th hour
From the text: The data of five independent experiments are expressed as the mean±mean standard deviation. As compared with the control group, * means p<0.05; ** means p<0.05; *** means p<0.001.
as §1

Row | SMILES | proliferation of EPCs (human EPCs [1]) | tube formation of EPCs, concentration dependence (human EPCs [2]) | in vivo neovascularization in the chicken embryo (chicken embryo) | formation of capillaries in mice (mice) | LDH release (cytotoxicity) (human EPCs [3])
1 | O=C(OC[C@H]1O[C@@H](OC(=O)c2cc(O)c(O)c(O)c2)[C@H](OC(=O)c2cc(O)c(O)c(O)c2)[C@@H](OC(=O)c2cc(O)c(O)c(O)c2)[C@@H]1OC(=O)c1cc(O)c(O)c(O)c1)c1cc(O)c(O)c(O)c1 [PGG, 1,2,3,4,6-penta-O-galloyl-β-D-glucose] | suppress the proliferation of EPCs in a concentration dependent manner | inhibited the tube formation of EPCs in a concentration dependent manner |  |  | 
2 | O=C(OC1O[C@@H]2COC(=O)c3cc(O)c(O)c(O)c3-c3c(cc(O)c(O)c3O)C(=O)O[C@H]2[C@H](OC(=O)c2cc(O)c(O)c(O)c2)[C@H]1OC(=O)c1cc(O)c(O)c(O)c1)c1cc(O)c(O)c(O)c1 (some centres unmarked) [tellimagrandin II] | suppress the proliferation of EPCs in a concentration dependent manner; also recorded: exhibited the most potent effect | inhibited the tube formation of EPCs in a concentration dependent manner | inhibited in vivo neovascularization in the chicken embryo in a concentration dependent manner | effectively inhibited the formation of capillaries in mice | LDH release was not induced
3 | O=C(O[C@H]1[C@@H]2OC(=O)c3cc(O)c(O)c(O)c3-c3c(cc(O)c(O)c3O)C(=O)OC[C@H]2OC(O)[C@@H]1OC(=O)c1cc(O)c(O)c(O)c1)c1cc(O)c(O)c(O)c1 (some centres unmarked) [tellimagrandin I] | suppress the proliferation of EPCs in a concentration dependent manner |  |  |  | 
